From EP0791072B1, “PROCESS FOR DETERMINING THE ACTIVITY OF SPECIFIC PHOSPHOTYROSINE PHOSPHATASES AND SPECIFIC EFFECTORS THEREOF IN INTACT CELLS” (Max-Planck-Gesellschaft zur Förderung der Wissenschaften …, priority 1994, dated 1996)

Legend:
Assay type in all cases: cell-based, Maus
PDGF-Rezeptor = experiment: Time course of PDGF receptor phosphotyrosine content in intact Swiss 3T3 cells, PTK inhibitor added after PDGF stimulation; conditions: AG 1296 50 µM added after 5 min PDGF stimulation, over incubation time
Source text: (§1) Swiss 3T3 Fibroblasten (Maus) exprimieren PDGFα und PDGFβ-Rezeptoren auf der Zelloberfläche (Hosang et al. (1989)). Die Stimulation der Zellen mit PDGF führt zu einer raschen Autophosphorylierung dieser Rezeptoren an Tyrosinresten. […] Die autophosphorylierten Rezeptoren werden durch PDGF-Rezeptor-gerichtete PTPase(n) rasch dephosphoryliert (Bohmer et al. (1993)). Die Identität der zellulären PTPasen, die diese Reaktion katalysieren, ist nicht bekannt. Ein hochspezifischer Inhibitor für die PDGF-Rezeptor PTK (AG 1296) hemmt deren Aktivität bereits nach sehr kurzer Behandlung der Zellen (2 min) vollständig (Abb. 1). In isolierten Membranen von Swiss 3T3-Zellen beeinflußt der Inhibitor die in den Membranen enthaltenen PTPase(n) für den autophosphorylierten PDGF-Rezeptor in ihrer Aktivität nicht (Abb. 2). Wird der Inhibitor Zellen nach Aktivierung der PDGF-Rezeptor PTK zugesetzt, kann die Dephosphorylierung des PDGF-Rezeptors zeitabhängig verfolgt werden (Abb. 3).
Swiss 3T3-Zellen wurden in serumfreiem Medium mit PDGF (Abb. 3, Bahn 2-6) oder dem entsprechenden Lösungsmittel (Abb. 3, Bahn 1) behandelt. Nach 5-minütiger Stimulation wurde AG 1296 (50 µM, Abb. 3 B) oder entsprechendes Lösungsmittel (DMSO, Abb. 3 A) zugesetzt. […] Diese Abnahme wird durch die Aktivität der PDGF Rezeptor-gerichteten PTPase in den intakten Zellen bewirkt. Eine graphische Auswertung ist in Abb. 4 gezeigt. […]

PDGF-Rezeptor PTK = experiment: Inhibition of PDGF-induced receptor autophosphorylation in intact Swiss 3T3 cells (anti-phosphotyrosine immunoblot); conditions: AG 1296 50 µM, 2 min preincubation, then PDGF-BB 100 ng/ml for 5 min
Source text: as §1

[1] = tested on: PDGF-Rezeptor-gerichtete(n) PTPase(n)

SMILES | Phosphotyrosingehalt der PDGF-Rezeptoren (PDGF-Rezeptor) | PDGF-induzierte Autophosphorylierung des Rezeptors (PDGF-Rezeptor PTK) | Relative PDGF Rezeptor-gerichtete PTPase-Aktivität (% der Kontrolle) [1] [% der Kontrolle]
COc1cc2ncc(-c3ccccc3)nc2cc1OC [AG 1296] | kontinuierlich ab | vollständig unterdrückt | –
CNc1ccc2oc(C[C@H]3O[C@@]4(CC[C@H]3C)O[C@H]([C@H](C)C(=O)c3ccc[nH]3)[C@H](C)C[C@H]4C)nc2c1C(=O)O [A 23187, 5-(Methylamino)-2-[[3,9,11-trimethyl-8-[1-methyl-2-oxo-(1H-pyrrol-2-yl)ethyl]-1,7-dioxaspiro[5,5]undec-2-yl]methyl]-4-benoxazolcarbonsäure] | – | – | 161
